Measurements: ChEMBL document CHEMBL1136580, “Enterolosaponins A and B, novel triterpene bisdesmosides from Enterolobium contortisiliquum, and evaluation for their macrophage-oriented cytotoxic activity” (Bioorg Med Chem Lett, 2003)

Experiment: Compound was tested for its cytotoxic activity against BACI.2F5 mouse macrophages
Conditions: read-out: LD50 (the source's name)

With CC(=O)N[C@@H]1[C@H](O[C@H]2CC[C@]3(C)[C@H]4CC=C5[C@@H]6CC(C)(C)[C@@H](OC(=O)/C=C/c7ccccc7)C[C@]6(C(=O)O[C@@H]6O[C@@H](CO)[C@@H](O)[C@H](O)[C@@H]6O[C@@H]6O[C@@H](C)[C@H](O[C@@H]7O[C@@H](CO)[C@H](O)[C@H]7O)[C@H](O[C@@H]7O[C@@H](CO)[C@@H](O)[C@H](O)[C@@H]7O)[C@H]6O)CC[C@@]5(C)[C@]4(C)CC[C@H]3C2(C)C)O[C@@H](CO[C@@H]2OC[C@H](O)[C@@H](O)[C@@H]2O[C@@H]2OC[C@@H](O)[C@H](O)[C@@H]2O)[C@@H](O)[C@@H]1O the CC50 was at most 3000 nM.
